# Results: ChEMBL document CHEMBL3885861, “Open TG-GATES”
# Organism: Rattus norvegicus
# Experiment: Open TG-GATES - Regimen: Single
# Type: toxicity, organism-based, Sprague-Dawley
# Set-up: regimen Single, gender Male, age 6 weeks
# Conditions: in vivo, po, 30 mg/kg, route gavage, dose level High; for APTT / Bas / Eos / Fbg / Hb / Ht / Lym / MCH / MCHC / MCV / Mono / Neu / PT / Plat / RBC / Ret / WBC: tissue Blood; for KIDNEY_L / KIDNEY_R / KIDNEY_TOTAL: tissue Kidney; for LIVER: tissue Liver; for A/G / ALP / ALT / AST / BUN / CRE / Ca / Cl / DBIL / GLC / IP / K / LDH / Na / PL / RALB / TBIL / TC / TG / TP / gamma-GTP: tissue Plasma
smiles,measurement,setting,value
C[C@H]1C(=O)O[C@@H]2CCN3CC=C(COC(=O)[C@](C)(O)[C@]1(C)O)[C@H]23 [MONOCROTALINE],TERMINAL_BW,3 h,209.7 g
same,APTT,3 h,21.1 s
same,Bas,3 h,0%
same,Eos,3 h,1.2%
same,Fbg,3 h,305.4 mg/dL
same,Hb,3 h,13.2 g/dL
same,Ht,3 h,38.8%
same,Lym,3 h,76.4%
same,MCH,3 h,21.5 pg
same,MCHC,3 h,34%
same,MCV,3 h,63.2 fL
same,Mono,3 h,2.2%
same,Neu,3 h,19.6%
same,PT,3 h,16.2 s
same,Plat,3 h,119.2 x10_4/uL
same,RBC,3 h,615.6 x10_4/ul
same,Ret,3 h,8.9%
same,WBC,3 h,71.5 x10_2/uL
same,KIDNEY_L,3 h,0.9 g
same,KIDNEY_R,3 h,0.9 g
same,KIDNEY_TOTAL,3 h,1.8 g
same,LIVER,3 h,9.5 g
same,A/G,3 h,1.4
same,ALP,3 h,1720.6 IU/L
same,ALT,3 h,40.8 IU/L
same,AST,3 h,76.4 IU/L
same,BUN,3 h,13.2 mg/dL
same,CRE,3 h,0.2 mg/dL
same,Ca,3 h,10.4 mg/dL
same,Cl,3 h,106 meq/L
same,DBIL,3 h,0 mg/dL
same,GLC,3 h,169.4 mg/dL
same,IP,3 h,9.2 mg/dL
same,K,3 h,4.2 meq/L
same,LDH,3 h,228.2 IU/L
same,Na,3 h,142 meq/L
same,PL,3 h,127.6 mg/dL
same,RALB,3 h,3.1 g/dL
same,TBIL,3 h,0.01 mg/dL
same,TC,3 h,71.2 mg/dL
same,TG,3 h,78.8 mg/dL
same,TP,3 h,5.3 g/dL
same,gamma-GTP,3 h,1 IU/L
same,TERMINAL_BW,6 h,211.5 g
same,APTT,6 h,22.7 s
same,Bas,6 h,0%
same,Eos,6 h,1%
same,Fbg,6 h,309.8 mg/dL
same,Hb,6 h,13.7 g/dL
same,Ht,6 h,39.8%
same,Lym,6 h,78.6%
same,MCH,6 h,20.8 pg
same,MCHC,6 h,34.4%
same,MCV,6 h,60.7 fL
same,Mono,6 h,2.6%
same,Neu,6 h,17.2%
same,PT,6 h,16.2 s
same,Plat,6 h,128.2 x10_4/uL
same,RBC,6 h,657.2 x10_4/ul
same,Ret,6 h,8.4%
same,WBC,6 h,94.1 x10_2/uL
same,KIDNEY_L,6 h,0.9 g
same,KIDNEY_R,6 h,1 g
same,KIDNEY_TOTAL,6 h,1.9 g
same,LIVER,6 h,9.6 g
same,A/G,6 h,1.3
same,ALP,6 h,1398.4 IU/L
same,ALT,6 h,39.2 IU/L
same,AST,6 h,72.8 IU/L
same,BUN,6 h,11.2 mg/dL
same,CRE,6 h,0.1 mg/dL
same,Ca,6 h,10.5 mg/dL
same,Cl,6 h,106.4 meq/L
same,DBIL,6 h,0 mg/dL
same,GLC,6 h,173 mg/dL
same,IP,6 h,9.6 mg/dL
same,K,6 h,4.4 meq/L
same,LDH,6 h,273.4 IU/L
same,Na,6 h,141.8 meq/L
same,PL,6 h,137.4 mg/dL
same,RALB,6 h,3 g/dL
same,TBIL,6 h,0.018 mg/dL
same,TC,6 h,73 mg/dL
same,TG,6 h,66 mg/dL
same,TP,6 h,5.4 g/dL
same,gamma-GTP,6 h,1 IU/L
same,TERMINAL_BW,9 h,210 g
same,APTT,9 h,20.9 s
same,Bas,9 h,0%
same,Eos,9 h,0.8%
same,Fbg,9 h,301.6 mg/dL
same,Hb,9 h,13.2 g/dL
same,Ht,9 h,38.3%
same,Lym,9 h,79%
same,MCH,9 h,21.2 pg
same,MCHC,9 h,34.4%
same,MCV,9 h,61.8 fL
same,Mono,9 h,1.8%
same,Neu,9 h,18%
same,PT,9 h,16.3 s
same,Plat,9 h,122.7 x10_4/uL
same,RBC,9 h,620.2 x10_4/ul
same,Ret,9 h,9%
same,WBC,9 h,63.3 x10_2/uL
same,KIDNEY_L,9 h,1 g
same,KIDNEY_R,9 h,1 g
same,KIDNEY_TOTAL,9 h,2 g
same,LIVER,9 h,9.4 g
same,A/G,9 h,1.4
same,ALP,9 h,1227.2 IU/L
same,ALT,9 h,36.8 IU/L
same,AST,9 h,70.8 IU/L
same,BUN,9 h,9.6 mg/dL
same,CRE,9 h,0.1 mg/dL
same,Ca,9 h,10.7 mg/dL
same,Cl,9 h,105.6 meq/L
same,DBIL,9 h,0.006 mg/dL
same,GLC,9 h,178 mg/dL
same,IP,9 h,10.2 mg/dL
same,K,9 h,4.3 meq/L
same,LDH,9 h,198.2 IU/L
same,Na,9 h,142.2 meq/L
same,PL,9 h,119.4 mg/dL
same,RALB,9 h,3.1 g/dL
same,TBIL,9 h,0.022 mg/dL
same,TC,9 h,64 mg/dL
same,TG,9 h,40.8 mg/dL
same,TP,9 h,5.4 g/dL
same,gamma-GTP,9 h,1 IU/L
same,TERMINAL_BW,24 h,212.6 g
same,APTT,24 h,20.5 s
same,Bas,24 h,0%
same,Eos,24 h,0.8%
same,Fbg,24 h,302.4 mg/dL
same,Hb,24 h,13.9 g/dL
same,Ht,24 h,40.3%
same,Lym,24 h,79.4%
same,MCH,24 h,21.1 pg
same,MCHC,24 h,34.5%
same,MCV,24 h,61.3 fL
same,Mono,24 h,3%
same,Neu,24 h,16.2%
same,PT,24 h,16.1 s
same,Plat,24 h,123.3 x10_4/uL
same,RBC,24 h,658.2 x10_4/ul
same,Ret,24 h,7%
same,WBC,24 h,70.1 x10_2/uL
same,KIDNEY_L,24 h,1 g
same,KIDNEY_R,24 h,1 g
same,KIDNEY_TOTAL,24 h,1.9 g
same,LIVER,24 h,10.4 g
same,A/G,24 h,1.4
same,ALP,24 h,1607.2 IU/L
same,ALT,24 h,47.8 IU/L
same,AST,24 h,75 IU/L
same,BUN,24 h,15.8 mg/dL
same,CRE,24 h,0.2 mg/dL
same,Ca,24 h,10.5 mg/dL
same,Cl,24 h,107 meq/L
same,DBIL,24 h,0.002 mg/dL
same,GLC,24 h,172 mg/dL
same,IP,24 h,7.8 mg/dL
same,K,24 h,4.3 meq/L
same,LDH,24 h,182 IU/L
same,Na,24 h,142.2 meq/L
same,PL,24 h,182.4 mg/dL
same,RALB,24 h,3.2 g/dL
same,TBIL,24 h,0.004 mg/dL
same,TC,24 h,77 mg/dL
same,TG,24 h,108 mg/dL
same,TP,24 h,5.5 g/dL
same,gamma-GTP,24 h,1 IU/L
